Calls of active or inactive are those of the source.
How the values were obtained:
[1] = test system: Candida albicans; test: C. albicans growth inhibition with fluconazole, dose response, antifungal resistance reversal project, CaCi-2 strain, Alamar Blue, dry powder, set 2 (AID 488930); assay type: functional, organism-based
[2] = test system: Candida albicans; test: growth inhibition of resistant C. albicans, dose response, CaCi-8 strain, fluconazole, dry powder, set 4 (AID 488950); assay type: functional, organism-based
[3] = test system: Candida albicans; test: fluconazole resistance reversal in C. albicans, dose response, CaCi-2 strain, Alamar Blue, dry powder, set 4 (AID 488943); assay type: functional, organism-based
[4] = test system: Candida albicans; test: growth inhibition of azole-resistant C. albicans, dose response, CaCi-8 strain, Alamar Blue, dry powder, set 2 (AID 488909); assay type: functional, organism-based
[5] = test system: Candida albicans; test: Candida albicans growth inhibition, compound alone, dose response, counter-screen for antifungal drug resistance project, CaCi-2 strain, Alamar Blue, dry powder, set 2 (AID 488893); assay type: functional, organism-based
[6] = target: T1, Sentrin-specific protease 6 (Homo sapiens, UniProt Q9GZR1); test: SENP6 protease inhibitors, SAR follow-up, biochemical, luminescence, set 2 (AID 588598); assay type: functional
T1 sequence (Q9GZR1 whole entry): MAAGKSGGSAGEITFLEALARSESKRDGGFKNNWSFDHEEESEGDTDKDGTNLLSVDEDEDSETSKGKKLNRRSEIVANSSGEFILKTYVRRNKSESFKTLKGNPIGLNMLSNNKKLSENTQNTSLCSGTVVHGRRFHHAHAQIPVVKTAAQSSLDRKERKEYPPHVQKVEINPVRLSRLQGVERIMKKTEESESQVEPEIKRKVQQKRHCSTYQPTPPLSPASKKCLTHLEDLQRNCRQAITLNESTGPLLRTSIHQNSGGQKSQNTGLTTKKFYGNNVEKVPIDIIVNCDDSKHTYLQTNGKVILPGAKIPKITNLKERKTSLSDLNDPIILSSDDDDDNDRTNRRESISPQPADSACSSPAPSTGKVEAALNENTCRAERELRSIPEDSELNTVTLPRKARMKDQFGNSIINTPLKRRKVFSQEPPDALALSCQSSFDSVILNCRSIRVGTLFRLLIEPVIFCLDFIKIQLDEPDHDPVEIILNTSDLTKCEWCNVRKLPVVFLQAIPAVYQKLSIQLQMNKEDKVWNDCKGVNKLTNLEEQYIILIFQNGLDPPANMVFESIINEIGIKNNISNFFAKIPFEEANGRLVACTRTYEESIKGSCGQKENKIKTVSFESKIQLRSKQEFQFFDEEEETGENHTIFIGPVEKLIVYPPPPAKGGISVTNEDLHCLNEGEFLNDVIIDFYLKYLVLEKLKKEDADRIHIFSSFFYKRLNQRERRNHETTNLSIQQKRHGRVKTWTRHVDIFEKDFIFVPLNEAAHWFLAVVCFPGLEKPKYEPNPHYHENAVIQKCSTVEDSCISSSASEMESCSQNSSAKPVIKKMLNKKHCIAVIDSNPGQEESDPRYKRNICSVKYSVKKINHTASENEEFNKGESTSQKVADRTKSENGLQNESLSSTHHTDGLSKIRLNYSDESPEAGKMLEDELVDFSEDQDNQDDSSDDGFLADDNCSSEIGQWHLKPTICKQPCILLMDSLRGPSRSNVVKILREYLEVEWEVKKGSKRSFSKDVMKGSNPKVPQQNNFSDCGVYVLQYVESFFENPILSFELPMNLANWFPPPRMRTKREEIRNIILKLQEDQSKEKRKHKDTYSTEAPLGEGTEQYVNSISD

[7] = target: T2, Sentrin-specific protease 8 (Homo sapiens, UniProt Q96LD8); test: SENP8 protease inhibitors, SAR follow-up, biochemical, luminescence, set 2 (AID 588601); assay type: functional
T2 sequence (Q96LD8 whole entry): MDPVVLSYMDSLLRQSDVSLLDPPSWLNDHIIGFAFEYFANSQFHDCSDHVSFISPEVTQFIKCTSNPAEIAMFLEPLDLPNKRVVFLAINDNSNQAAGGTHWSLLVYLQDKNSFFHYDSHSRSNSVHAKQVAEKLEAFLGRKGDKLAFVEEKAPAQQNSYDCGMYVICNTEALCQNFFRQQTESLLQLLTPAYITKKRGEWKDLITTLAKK

[8] = target: T3, Sentrin-specific protease 7 (Homo sapiens, UniProt Q9BQF6); test: SENP7 protease inhibitors, SAR follow-up, biochemical, luminescence, set 2 (AID 588600); assay type: functional
T3 sequence (Q9BQF6 whole entry): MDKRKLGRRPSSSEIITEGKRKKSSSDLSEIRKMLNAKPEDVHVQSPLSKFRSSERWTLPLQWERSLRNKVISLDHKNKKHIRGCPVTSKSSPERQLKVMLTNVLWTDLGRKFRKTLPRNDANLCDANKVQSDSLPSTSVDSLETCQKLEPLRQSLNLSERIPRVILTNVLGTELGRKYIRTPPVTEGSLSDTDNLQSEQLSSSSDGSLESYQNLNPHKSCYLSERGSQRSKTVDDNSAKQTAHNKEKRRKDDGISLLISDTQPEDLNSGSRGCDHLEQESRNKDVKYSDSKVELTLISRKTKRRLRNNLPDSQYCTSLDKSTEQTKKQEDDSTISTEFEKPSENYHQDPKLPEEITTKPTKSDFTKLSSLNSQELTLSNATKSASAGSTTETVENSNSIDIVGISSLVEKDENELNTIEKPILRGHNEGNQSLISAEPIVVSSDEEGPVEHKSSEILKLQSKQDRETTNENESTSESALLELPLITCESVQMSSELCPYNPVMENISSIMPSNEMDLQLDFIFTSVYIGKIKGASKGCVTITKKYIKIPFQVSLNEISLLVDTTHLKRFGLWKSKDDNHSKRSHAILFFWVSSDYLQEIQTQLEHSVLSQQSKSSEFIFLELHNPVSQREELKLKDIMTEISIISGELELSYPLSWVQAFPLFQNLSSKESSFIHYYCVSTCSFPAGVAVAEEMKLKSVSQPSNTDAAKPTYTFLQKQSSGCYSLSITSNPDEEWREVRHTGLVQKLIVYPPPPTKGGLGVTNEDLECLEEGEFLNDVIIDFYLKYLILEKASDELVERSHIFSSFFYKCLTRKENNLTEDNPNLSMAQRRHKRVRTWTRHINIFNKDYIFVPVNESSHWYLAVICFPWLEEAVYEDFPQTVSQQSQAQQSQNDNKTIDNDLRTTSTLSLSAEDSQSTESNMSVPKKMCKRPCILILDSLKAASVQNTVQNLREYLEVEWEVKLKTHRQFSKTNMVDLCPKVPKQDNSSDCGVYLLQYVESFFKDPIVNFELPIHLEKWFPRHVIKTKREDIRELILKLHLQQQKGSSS

[9] = target: T4, Caspase-3 (Homo sapiens, UniProt P42574); test: caspase-3 inhibitors as off-family protease, SAR follow-up, selectivity assay for SENP protease inhibitor project, biochemical, luminescence, set 2 (AID 588599); assay type: functional
T4 sequence (P42574 whole entry): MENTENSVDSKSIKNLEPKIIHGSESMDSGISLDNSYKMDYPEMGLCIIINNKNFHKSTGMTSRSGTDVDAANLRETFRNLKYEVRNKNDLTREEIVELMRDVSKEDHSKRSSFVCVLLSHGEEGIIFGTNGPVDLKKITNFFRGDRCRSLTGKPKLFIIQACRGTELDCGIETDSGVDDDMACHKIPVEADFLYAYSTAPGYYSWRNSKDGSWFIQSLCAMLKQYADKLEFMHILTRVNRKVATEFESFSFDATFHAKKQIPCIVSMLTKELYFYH

[10] = target: Mu-type opioid receptor (Homo sapiens, UniProt P35372); test: (§1) Counterscreen for agonists of heterodimerization of the mu 1 (OPRM1) and delta 1 (OPRD1) opioid receptors: Luminescence-based cell-based high throughput dose response assay to identify agonists of OPRM1 homodimerization.; assay type: functional
[11] = test system: A-375; test: MITF: Counter assay: A375 proliferation Measured in Cell-Based System Using Plate Reader - 2084-03_Inhibitor_Dose_DryPowder_Activity. [Related pubchem assays (depositor defined):AID488944]; assay type: functional; settings: Homo sapiens
[12] = test system: Streptococcus sp. 'group A'; test: growth inhibition of control SK(-) GAS strain, dose response, counter-screen for streptokinase expression inhibitor project, luminescence, kanamycin, BacTiterGlo, confirmation (AID 1900); assay type: functional, organism-based
[13] = target: Neurotensin receptor type 1 (Homo sapiens, UniProt P30989); assay type: functional;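 further: Image-based confirmatory dose-response assay measuring agonist activity at NTR1; NTR1-expressing U2OS osteosarcoma cells imaged for beta-arrestin GFP spot formation; agonist potency where compounds increase beta-arrestin recruitment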
[14] = target: T5, Microphthalmia-associated transcription factor (Homo sapiens, UniProt O75030); test: TRPM1 promoter luciferase signal decrease, dose response, MITF inhibitor project, cell-based, SK-MEL-5, cherry-picked, set 3 (AID 493073); assay type: functional
T5 sequence (O75030 whole entry): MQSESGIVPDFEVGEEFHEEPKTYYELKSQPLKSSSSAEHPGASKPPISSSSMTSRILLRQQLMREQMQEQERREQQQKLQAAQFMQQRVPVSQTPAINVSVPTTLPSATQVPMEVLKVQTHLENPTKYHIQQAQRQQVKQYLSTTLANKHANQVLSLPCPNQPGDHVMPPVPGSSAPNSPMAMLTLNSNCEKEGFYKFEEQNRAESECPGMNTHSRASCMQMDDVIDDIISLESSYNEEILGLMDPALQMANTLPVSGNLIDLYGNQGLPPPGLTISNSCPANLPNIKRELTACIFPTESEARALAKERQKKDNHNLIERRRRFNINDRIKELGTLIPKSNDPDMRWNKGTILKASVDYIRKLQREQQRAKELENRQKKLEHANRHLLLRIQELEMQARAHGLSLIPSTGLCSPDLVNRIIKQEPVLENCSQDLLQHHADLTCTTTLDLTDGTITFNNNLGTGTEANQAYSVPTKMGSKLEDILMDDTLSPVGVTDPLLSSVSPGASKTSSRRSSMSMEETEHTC

[15] = test system: Streptococcus; test: Group A Streptococcus viability loss, dose response, counter-screen for streptokinase expression inhibitor project, luminescence, BacTiterGlo (AID 1915); assay type: functional, organism-based;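 further: potency for reduction of bacterial viability or growth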
[16] = target: 5-hydroxytryptamine receptor 5A (Homo sapiens, UniProt P47898); test: Counterscreen for agonists of OPRM1-OPRD1 heterodimerization: luminescence-based cell-based high throughput dose response assay to identify agonists of 5-hydroxytryptamine (serotonin) 5A receptor (HTR5A). [Related pubchem assays (depositor defined):AID504326, AID504355, AID504692, AID504904, AID504905]; assay type: functional
[17] = target: Delta-type opioid receptor (Homo sapiens, UniProt P41143); test: as §1, with “of OPRD1” for “of OPRM1”, “homodimerization. [Related pubchem assays (depositor defined):AID504326, AID504355, AID504692, AID504904, AID504905]” for “homodimerization.”; assay type: functional
[18] = nonselective inhibitors of cellular cAMP signaling, dose response, counter-screen for MC4R biased antagonist project, cell-based, TR-FRET cAMP detection (AID 602305); assay type: functional;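 further: U2OS cells stimulated with forskolin near its EC80 as the cAMP inducer; potency is for inhibition of forskolin-stimulated cAMP signaling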
[19] = target: Melanocortin receptor 4 (Homo sapiens, UniProt P32245); test: MC4R antagonist potency on cAMP, dose response, cell-based, TR-FRET, biased antagonists (AID 602298); assay type: functional;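 further: antagonist potency against agonist-stimulated cAMP production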
[20] = target: T6, Streptokinase A (Streptococcus pyogenes serotype M1, UniProt P10520); test: S. pyogenes streptokinase expression inhibitors, potency, dose response, plasminogen activation absorbance, OD405 (AID 1914); assay type: functional, Streptococcus pyogenes M1 GAS;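 further: secreted streptokinase activity via plasminogen activation per viability signal from cell pellet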
T6 sequence (P10520 whole entry): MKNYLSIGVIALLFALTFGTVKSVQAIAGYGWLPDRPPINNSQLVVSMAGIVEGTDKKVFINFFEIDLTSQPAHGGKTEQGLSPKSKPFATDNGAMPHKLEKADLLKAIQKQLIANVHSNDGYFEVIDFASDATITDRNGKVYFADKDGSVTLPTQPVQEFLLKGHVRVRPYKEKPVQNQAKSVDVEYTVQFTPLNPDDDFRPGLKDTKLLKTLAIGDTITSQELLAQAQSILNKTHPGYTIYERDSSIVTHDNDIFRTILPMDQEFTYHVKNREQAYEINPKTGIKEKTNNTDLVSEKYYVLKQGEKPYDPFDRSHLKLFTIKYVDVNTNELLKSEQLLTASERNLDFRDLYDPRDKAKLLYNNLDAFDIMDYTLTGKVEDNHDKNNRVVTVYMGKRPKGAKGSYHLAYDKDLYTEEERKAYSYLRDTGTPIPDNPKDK

Delta-type opioid receptor, sequence (P41143 whole entry): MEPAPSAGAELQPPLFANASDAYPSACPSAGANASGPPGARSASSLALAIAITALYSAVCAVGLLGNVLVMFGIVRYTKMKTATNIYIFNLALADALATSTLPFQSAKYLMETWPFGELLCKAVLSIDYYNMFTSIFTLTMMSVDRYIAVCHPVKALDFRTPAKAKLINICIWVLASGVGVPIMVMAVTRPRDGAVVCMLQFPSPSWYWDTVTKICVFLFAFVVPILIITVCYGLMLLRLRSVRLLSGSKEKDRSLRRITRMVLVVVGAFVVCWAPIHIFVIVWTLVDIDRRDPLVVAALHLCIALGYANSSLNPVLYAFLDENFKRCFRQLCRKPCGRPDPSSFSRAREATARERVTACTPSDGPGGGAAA
Mu-type opioid receptor, sequence (P35372 whole entry): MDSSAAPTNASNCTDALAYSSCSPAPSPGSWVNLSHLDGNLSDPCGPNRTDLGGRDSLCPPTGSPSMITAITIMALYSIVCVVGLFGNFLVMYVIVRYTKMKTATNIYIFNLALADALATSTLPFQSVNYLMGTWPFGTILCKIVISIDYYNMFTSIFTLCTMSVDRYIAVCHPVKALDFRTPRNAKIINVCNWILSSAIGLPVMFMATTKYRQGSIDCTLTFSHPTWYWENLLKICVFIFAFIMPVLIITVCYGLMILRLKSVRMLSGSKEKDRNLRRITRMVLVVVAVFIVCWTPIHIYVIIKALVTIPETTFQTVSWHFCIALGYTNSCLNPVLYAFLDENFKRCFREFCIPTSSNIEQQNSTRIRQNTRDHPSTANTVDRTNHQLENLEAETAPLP
Melanocortin receptor 4, sequence (P32245 whole entry): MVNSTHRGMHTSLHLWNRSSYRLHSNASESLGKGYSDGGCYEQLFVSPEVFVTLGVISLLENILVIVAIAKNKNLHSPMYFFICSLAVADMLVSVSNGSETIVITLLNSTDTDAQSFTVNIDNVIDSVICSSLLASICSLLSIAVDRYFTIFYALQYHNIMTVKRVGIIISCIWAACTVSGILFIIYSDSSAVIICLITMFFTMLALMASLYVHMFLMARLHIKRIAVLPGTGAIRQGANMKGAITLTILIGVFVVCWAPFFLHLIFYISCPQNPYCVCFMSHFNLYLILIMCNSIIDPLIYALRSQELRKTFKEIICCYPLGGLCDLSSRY
5-hydroxytryptamine receptor 5A, sequence (P47898 whole entry): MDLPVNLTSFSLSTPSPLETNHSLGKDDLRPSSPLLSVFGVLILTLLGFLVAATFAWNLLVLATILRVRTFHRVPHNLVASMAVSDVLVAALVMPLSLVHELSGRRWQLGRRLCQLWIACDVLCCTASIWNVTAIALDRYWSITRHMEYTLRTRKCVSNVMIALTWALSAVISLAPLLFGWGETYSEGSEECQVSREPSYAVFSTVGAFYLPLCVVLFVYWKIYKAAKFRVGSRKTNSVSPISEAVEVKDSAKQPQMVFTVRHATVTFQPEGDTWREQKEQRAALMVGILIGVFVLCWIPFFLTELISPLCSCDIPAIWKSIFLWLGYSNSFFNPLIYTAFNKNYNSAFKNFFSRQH
Neurotensin receptor type 1, sequence (P30989 whole entry): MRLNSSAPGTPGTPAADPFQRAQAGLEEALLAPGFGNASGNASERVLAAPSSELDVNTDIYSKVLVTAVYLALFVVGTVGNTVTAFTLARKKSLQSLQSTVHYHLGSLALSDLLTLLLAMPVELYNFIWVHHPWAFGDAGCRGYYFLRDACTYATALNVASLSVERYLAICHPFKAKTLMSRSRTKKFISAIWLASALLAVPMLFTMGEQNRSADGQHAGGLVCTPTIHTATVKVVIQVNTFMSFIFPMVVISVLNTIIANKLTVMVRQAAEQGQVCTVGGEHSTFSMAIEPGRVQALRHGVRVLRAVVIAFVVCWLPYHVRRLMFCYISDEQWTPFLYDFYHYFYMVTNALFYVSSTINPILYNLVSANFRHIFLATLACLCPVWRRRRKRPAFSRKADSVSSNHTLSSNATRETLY

## COc1ccc(C(=O)N2CCN(c3ccnc4cc(Cl)ccc34)CC2)cc1
[1]
  AC50: 4.25 µM (active)
[2]
  AC50: 5.38 µM (active)
[3]
  AC50: 4.15 µM (active)
[4]
  AC50: 10.2 µM (active)
[5]
  AC50: 32.2 µM (active)

## Cc1[nH]c2ccccc2c1C(=O)C(=O)NCCCN1CCOCC1
[6]
  IC50: > 99 µM (inactive)
[7]
  IC50: > 99 µM (inactive)
[8]
  IC50: > 99 µM (inactive)
[9]
  IC50: > 99 µM (inactive)

## CN(C)S(=O)(=O)c1ccc(-c2csc(N/N=C/c3ccc(O)cc3)n2)cc1
[10]
  EC50: > 92.5 µM (inactive)
[11]
  AC50: 30.8 µM (active)
[12]
  EC50: 8.68 µM (active)
[13]
  EC50: 6.62 µM (active)
[14]
  AC50: 4.6 µM (active)
[15]
  EC50: 13.3 µM (active)
[16]
  EC50: > 92.5 µM (inactive)
[17]
  EC50: > 92.5 µM (inactive)
[18]
  IC50: > 64.6 µM (inactive)
[19]
  IC50: > 64.6 µM (inactive)
[20]
  EC50: > 150 µM (not active)

From ChEMBL document CHEMBL1201862, “PubChem BioAssay data set” (2004)
